Patent US20070184175A1, “CONTINUOUS PRODUCTION OF CEREAL FLOUR AND WHOLE-CEREAL FLOUR FOR GRAIN-BASED FOODS, USING A LOW-MOISTURE PRECOOKING” (priority 2005, published 2007)

Tests used:
[1] = Davalos et al. (2004); cited from earlier work
[2] = set-up: concentration or dose not given beside the values; conditions: Kikuzaki et al. (2002); cited from earlier work
[3] = concentration of Trolox solution with equivalent antioxidant capacity to a 1 mM concentration of the compound; cited from earlier work
[4] = ABTS radical scavenging assay; assay type: biochemical; conditions: Intasa-Chromadex analytical test report, 2006; gallic as positive-control
Description: Kikuzaki et al. (2002) previously published the DPPH radical-scavenging and increasing inhibition effects of ferulic, oryzanol (steryl-ferulate), BHT, α-tocopherol (Trolox) and gallic acid (27%<21%<29%<42%<76%). A TEAC test was defined as the concentration of Trolox solution with equivalent antioxidant capacity to a 1 mM concentration of the compound (Rice-Evans et al. 1996). Similar increasing values were found for α-tocopherol (Trolox), caffeic, ferulic and gallic acid (1.0<1.3<1.9<3.0). It also reflects the ability of hydrogen-donating antioxidants to scavenge the ABTS-radical). However, Davalos et al. (2004) used a different ORAC-FL (Oxygen radical absorbance capacity) test which described the μmol trolox equivalents per μmol of pure compound: BHA (synthetic), ferulic and protocatechuic (similar to gallic) with increasing values of 2.4, 4.5 and 6.7, respectively. This latter assay has been largely applied to assess free radical scavenging capacity of human plasma, proteins, DNA, pure antioxidant compounds and new antioxidants from plant and food extracts (Prior et al. 1999).

[5] = ingestion or topical applications; cited from earlier work

Row | Compound | ORAC-FL [1] | DPPH radical-scavenging inhibition effect [2] | TEAC [3] | IC50 or 50% inhibition value, ABTS radical scavenging [4] | acute or chronic side effects [5]
1 | COc1ccc(O)c(C(C)(C)C)c1 [BHA] | 2.4 μmol trolox equivalents per μmol of pure compound |  |  |  | 
2 | Cc1cc(C(C)(C)C)c(O)c(C(C)(C)C)c1 [BHT] |  | 29% |  |  | 
3 | O=C(O)/C=C/c1ccc(O)c(O)c1 [caffeic] |  |  | 1.3 |  | 
4 | COc1cc(/C=C/C(=O)O)ccc1O [ferulic, ferulic acid] | 4.5 μmol trolox equivalents per μmol of pure compound | 27% | 1.9 | 3.3 ppm | No acute or chronic side effects
5 | O=C(O)c1cc(O)c(O)c(O)c1 [gallic, gallic acid] |  | 76% | 3.0 | 1.5 ppm | 
6 | O=C(O)c1ccc(O)c(O)c1 [protocatechuic] | 6.7 μmol trolox equivalents per μmol of pure compound |  |  |  | 
7 | Cc1c(C)c2c(c(C)c1O)CC[C@@](C)(CCC[C@H](C)CCC[C@H](C)CCCC(C)C)O2 [α-tocopherol (Trolox), α-tocopherol] |  | 42% | 1.0 |  | 
8 | oryzanol |  | 21% |  |  | 
